Measurements: patent US11603372B2, “Compounds and therapeutic uses thereof” (VioGen Biosciences, LLC, priority 2017, dated 2023)

Biological target: PIKfyve (Homo sapiens (Human), UniProt Q9Y2I7)
Experiment: Kinase binding assay (kinase-tagged T7 phage, affinity beads, qPCR readout), Kd determination
Conditions: 11-point 3-fold compound dilution series
Experimental: Kinase assays. For most assays, kinase-tagged T7 phage strains were prepared in an E. coli host derived from the BL21 strain. E. coli were grown to log-phase and infected with T7 phage and incubated with shaking at 32° C. until lysis. The lysates were centrifuged and filtered to remove cell debris. The remaining kinases were produced in HEK-293 cells and subsequently tagged with DNA for qPCR detection. Streptavidin-coated magnetic beads were treated with biotinylated small molecule ligands for 30 minutes at room temperature to generate affinity resins for kinase assays. The liganded beads were blocked with excess biotin and washed with blocking buffer (SeaBlock (Pierce), 1% BSA, 0.05% Tween 20, 1 mM DTT) to remove unbound ligand and to reduce non-specific binding. Binding reactions were assembled by combining kinases, liganded affinity beads, and test compounds in 1× binding buffer (20% SeaBlock, 0.17×PBS, 0.05% Tween 20, 6 mM DTT). Test compounds were prepared as 111× stocks in 100% DMSO. Kds were determined using an 11-point 3-fold compound dilution series with three DMSO control points. All compounds for Kd measurements are distributed by acoustic transfer (non-contact dispensing) in 100% DMSO. The compounds were then diluted directly into the assays such that the final concentration of DMSO was 0.9%. All reactions performed in polypropylene 384-well plate. Each was a final volume of 0.02 ml. The assay plates were incubated at room temperature with shaking for 1 hour and the affinity beads were washed with wash buffer (1×PBS, 0.05% Tween 20). The beads were then re-suspended in elution buffer (1×PBS, 0.05% Tween 20, 0.5 μM non-biotinylated affinity ligand) and incubated at room temperature with shaking for 30 minutes. The kinase concentration in the eluates was measured by qPCR.
An 11-point 3-fold serial dilution of each test compound was prepared in 100% DMSO at 100× final test concentration and subsequently diluted to 1× in the assay (final DMSO concentration=1%). Most Kds were determined using a compound top concentration=30,000 nM. If the initial Kd determined was <0.5 nM (the lowest concentration tested), the measurement was repeated with a serial dilution starting at a lower top concentration.

Chain of PIKfyve (Q9Y2I7 whole entry): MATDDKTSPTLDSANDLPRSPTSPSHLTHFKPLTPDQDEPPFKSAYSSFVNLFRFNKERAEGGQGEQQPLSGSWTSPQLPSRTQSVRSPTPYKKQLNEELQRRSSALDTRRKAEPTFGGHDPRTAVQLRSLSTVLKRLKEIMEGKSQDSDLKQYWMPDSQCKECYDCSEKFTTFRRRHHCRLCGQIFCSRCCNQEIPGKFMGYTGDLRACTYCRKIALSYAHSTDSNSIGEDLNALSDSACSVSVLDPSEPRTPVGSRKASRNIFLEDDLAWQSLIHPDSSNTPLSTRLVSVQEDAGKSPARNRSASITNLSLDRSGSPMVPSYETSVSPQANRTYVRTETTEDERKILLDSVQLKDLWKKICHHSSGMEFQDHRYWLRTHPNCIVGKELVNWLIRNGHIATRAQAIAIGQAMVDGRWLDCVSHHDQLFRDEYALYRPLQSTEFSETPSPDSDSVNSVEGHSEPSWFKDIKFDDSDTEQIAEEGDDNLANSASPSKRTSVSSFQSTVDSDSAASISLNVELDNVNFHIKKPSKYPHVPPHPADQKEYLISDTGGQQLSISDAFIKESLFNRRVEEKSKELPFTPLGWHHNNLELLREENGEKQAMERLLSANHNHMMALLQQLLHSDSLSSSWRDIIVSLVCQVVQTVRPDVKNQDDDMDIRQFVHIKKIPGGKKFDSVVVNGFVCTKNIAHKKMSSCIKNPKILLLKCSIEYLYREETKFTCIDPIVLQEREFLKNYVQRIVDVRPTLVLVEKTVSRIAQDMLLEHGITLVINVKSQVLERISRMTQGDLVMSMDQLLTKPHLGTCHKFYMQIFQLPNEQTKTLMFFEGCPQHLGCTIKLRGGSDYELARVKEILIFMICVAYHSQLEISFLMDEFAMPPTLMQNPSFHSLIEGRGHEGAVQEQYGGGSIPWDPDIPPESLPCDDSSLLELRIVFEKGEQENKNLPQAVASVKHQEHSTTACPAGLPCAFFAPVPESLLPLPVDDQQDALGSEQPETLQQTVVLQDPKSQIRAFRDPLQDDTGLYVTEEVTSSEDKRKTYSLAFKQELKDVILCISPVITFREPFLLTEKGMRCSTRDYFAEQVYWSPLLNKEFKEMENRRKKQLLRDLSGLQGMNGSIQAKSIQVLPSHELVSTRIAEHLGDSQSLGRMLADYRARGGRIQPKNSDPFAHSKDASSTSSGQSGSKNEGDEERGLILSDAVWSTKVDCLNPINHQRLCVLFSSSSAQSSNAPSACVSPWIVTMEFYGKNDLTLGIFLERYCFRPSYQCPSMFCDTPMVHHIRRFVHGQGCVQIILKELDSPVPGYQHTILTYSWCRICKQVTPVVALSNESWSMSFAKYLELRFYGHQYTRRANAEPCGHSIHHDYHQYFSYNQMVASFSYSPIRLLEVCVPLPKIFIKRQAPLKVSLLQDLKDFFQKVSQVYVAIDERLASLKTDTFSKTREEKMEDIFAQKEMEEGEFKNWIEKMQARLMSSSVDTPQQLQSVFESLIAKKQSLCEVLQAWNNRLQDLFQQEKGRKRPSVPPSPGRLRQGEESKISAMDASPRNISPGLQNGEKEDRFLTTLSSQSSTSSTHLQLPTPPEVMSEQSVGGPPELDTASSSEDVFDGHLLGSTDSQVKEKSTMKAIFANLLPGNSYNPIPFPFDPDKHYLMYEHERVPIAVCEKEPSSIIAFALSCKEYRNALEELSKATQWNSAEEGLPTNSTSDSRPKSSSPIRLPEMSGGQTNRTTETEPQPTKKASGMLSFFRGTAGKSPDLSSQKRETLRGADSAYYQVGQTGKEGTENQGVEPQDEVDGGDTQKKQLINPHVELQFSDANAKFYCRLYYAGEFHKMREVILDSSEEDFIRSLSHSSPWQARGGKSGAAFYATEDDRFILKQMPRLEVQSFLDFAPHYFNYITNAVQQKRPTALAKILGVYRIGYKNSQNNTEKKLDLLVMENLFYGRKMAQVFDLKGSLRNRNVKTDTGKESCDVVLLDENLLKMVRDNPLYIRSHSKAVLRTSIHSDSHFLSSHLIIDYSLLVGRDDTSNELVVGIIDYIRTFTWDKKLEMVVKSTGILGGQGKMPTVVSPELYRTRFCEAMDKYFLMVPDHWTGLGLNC

Compound: Cc1cccc(/C=N/Nc2nc(N3CCOCC3)c3sc(C(=O)Nc4ccncc4)cc3n2)c1 [Example 5, 4-morpholino-2-[(2E)-2-(m-tolylmethylene)hydrazino]-N-(4-pyridyl)thieno[3,2-d]pyrimidine-6-carboxamide]
- Kd: 1 to 10 nM

Compound: Cc1cccc(/C=N/Nc2nc(N3CCOCC3)c3cc(-c4cnco4)sc3n2)c1 [Example 12, 4-morpholino-N-[(E)-m-tolylmethyleneamino]-6-oxazol-5-yl-thieno[2,3-d]pyrimidin-2-amine]
- Kd: ≤ 1 nM

Compound: Cc1cccc(CCNc2nc(N3CCOCC3)c3sc(-c4ccncc4)cc3n2)c1 [Example 255, 4-morpholino-N-[2-(m-tolyl)ethyl]-6-(4-pyridyl)thieno[3,2-d]pyrimidin-2-amine]
- Kd: 10 to 60 nM

Compound: Cc1cccc(/C=N/Nc2nc(N3CCOCC3)c3cc(-c4ccncc4)sc3n2)c1 [Example 11, 4-morpholino-N-[(E)-m-tolylmethyleneamino]-6-(4-pyridyl)thieno[2,3-d]pyrimidin-2-amine]
- Kd: 1 to 10 nM

Compound: Cc1cccc(/C=N/Nc2nc(N3CCOCC3)c3sc(-c4c(C)noc4C)cc3n2)c1 [Example 264, 6-(3,5-dimethylisoxazol-4-yl)-4-morpholino-N-[(E)-m-tolylmethyleneamino]thieno[3,2-d]pyrimidin-2-amine]
- Kd: ≤ 1 nM

Compound: Cc1cccc(/C=N/Nc2nc(N3CCOCC3)c3sc(-c4c(C)n[nH]c4C)cc3n2)c1 [Example 263, 6-(3,5-dimethyl-1H-pyrazol-4-yl)-4-morpholino-N-[(E)-m-tolylmethyleneamino]thieno[3,2-d]pyrimidin-2-amine]
- Kd: ≤ 1 nM

Compound: Cc1cccc(/C=N/Nc2nc(N3CCOCC3)c3sc(-c4ccccc4)cc3n2)c1 [Example 1, 4-morpholino-N-[(E)-m-tolylmethyleneamino]-6-phenyl-thieno[3,2-d]pyrimidin-2-amine]
- Kd: 1 to 10 nM

Compound: Cc1cccc(/C=N/Nc2nc(N3CCOCC3)c3cc(-c4c(C)n[nH]c4C)sc3n2)c1 [Example 268, 6-(3,5-dimethyl-1H-pyrazol-4-yl)-4-morpholino-N-[(E)-m-tolylmethyleneamino]thieno[2,3-d]pyrimidin-2-amine]
- Kd: 1 to 10 nM

Compound: Cc1cccc(/C=N/Nc2nc(N3CCOCC3)c3ccsc3n2)c1 [Example 10, 4-morpholino-N-[(E)-m-tolylmethyleneamino]thieno[2,3-d]pyrimidin-2-amine]
- Kd: 10 to 60 nM

Compound: Cc1cccc(/C=N/Nc2nc(N3CCOCC3)c3sc(C(=O)NC4CNC4)cc3n2)c1 [Example 22, N-(azetidin-3-yl)-4-morpholino-2-[(2E)-2-(m-tolylmethylene)hydrazino]thieno[3,2-d]pyrimidine-6-carboxamide]
- Kd: 1 to 10 nM

Compound: Cc1cccc(/C=N/Nc2nc(N3CCOCC3)c3sc(-c4cnco4)cc3n2)c1 [Example 9, 4-Morpholino-N-[(E)-m-tolylmethyleneamino]-6-oxazol-5-yl-thieno[3,2-d]pyrimidin-2-amine]
- Kd: 1 to 10 nM

Compound: Cc1cccc(/C=N/Nc2nc(N3CCOCC3)c3sc(-c4ccncc4)cc3n2)c1 [Example 2, 4-morpholino-N-[(E)-m-tolylmethyleneamino]-6-(4-pyridyl)thieno[3,2-d]pyrimidin-2-amine]
- Kd: ≤ 1 nM

Compound: Cc1cccc(/C=N/Nc2nc(N3CCOCC3)c3sc(C(=O)Nc4cccnc4)cc3n2)c1 [Example 4, 4-morpholino-2-[(2E)-2-(m-tolylmethylene)hydrazino]-N-(3-pyridyl)thieno[3,2-d]pyrimidine-6-carboxamide]
- Kd: ≤ 1 nM

Compound: Cc1cccc(/C=N/Nc2nc(N3CCOCC3)c3sc(-c4cnn(C)c4)cc3n2)c1 [Example 262, 6-(1-methylpyrazol-4-yl)-4-morpholino-N-[(E)-m-tolylmethyleneamino]thieno[3,2-d]pyrimidin-2-amine]
- Kd: ≤ 1 nM

Compound: Cc1cccc(/C=N/Nc2nc(N3CCOCC3)c3sc(-c4cccnc4)cc3n2)c1 [Example 261, 4-morpholino-N-[(E)-m-tolylmethyleneamino]-6-(3-pyridyl)thieno[3,2-d]pyrimidin-2-amine]
- Kd: ≤ 1 nM

Compound: Cc1cccc(/C=N/Nc2nc(N3CCOCC3)c3sccc3n2)c1 [Example 3, 4-morpholino-N-[(E)-m-tolylmethyleneamino]thieno[3,2-d]pyrimidin-2-amine]
- Kd: 1 to 10 nM

Compound: Clc1cccc(/C=N/Nc2nc(N3CCOCC3)c3cc(-c4cnco4)sc3n2)c1 [Example 14, N-[(E)-(3-chlorophenyl)methyleneamino]-4-morpholino-6-oxazol-5-yl-thieno[2,3-d]pyrimidin-2-amine]
- Kd: 10 to 60 nM

Compound: Cc1cccc(/C=N/Nc2nc(N3CCOCC3)c3sc(C(=O)NC4COC4)cc3n2)c1 [Example 7, 4-morpholino-2-[(2E)-2-(m-tolylmethylene)hydrazino]-N-(oxetan-3-yl)thieno[3,2-d]pyrimidine-6-carboxamide]
- Kd: ≤ 1 nM

Compound: Cc1cccc(/C=N/Nc2nc(N3CCOCC3)c3cc(-c4c(C)noc4C)sc3n2)c1 [Example 267, 6-(3,5-dimethylisoxazol-4-yl)-4-morpholino-N-[(E)-m-tolylmethyleneamino]thieno[2,3-d]pyrimidin-2-amine]
- Kd: 1 to 10 nM
